Data: US11801304B2, “Formulated and/or co-formulated liposome compositions containing TFGB antagonist prodrugs useful in the treatment of cancer and methods thereof” (Nammi Therapeutics, Inc., priority 2020, dated 2023)

Experiment: Solubility in ethanol when preparing stock solution
Format: physicochemical
Settings: stock solution 20 mg/ml prepared in acetonitrile instead
Method: In another experiment, a liposome comprising the TB4 prodrug (denoted LNP-TB4) was synthesized in the following manner. Briefly, In the first step, a lipid stock solution of POPC (1-palmitoyl-2-oleoyl-glycero-3-phosphocholine), CHOL, and DSPE-PEG, was prepared in ethanol (20 mg/ml) separately. […] The of lipid mixture of POPC, CHOL, TB4+Stearic Acid and DSPE-PEG was mixed together at a molar ratio of 51:29:16.5:3.5, and subsequently diluted with ethanol to get a total lipid concentration of 10 mg/ml. This lipid mixture was heated at 55-60 degree Centigrade using the heating block attachment in the microfluidizer. Similarly, the aqueous phase containing 1 mM PBS buffer was also preheated at 55-60 degree centigrade before passing through the microfluidics cartridge at the flow rate of 5:1 (aqueous:organic phase, lipid mixture). The solvent was removed using dialysis membrane of cut off 12 KDa size (Sigma Aldrich) against DI water for at least 24 hrs. The Dialysis water was changed at least 5 times during the period of 24 hrs. to maximize the removal of the solvent. After the removal of the solvent, the LNP-TB4 was concentrated according to the need using Amicon centrifugal filtration device (cut off size 10 KDa, at 3000 g).
In another experiment, a liposome comprising the TB4 prodrug (denoted LNP-TB4) was co-formulated with ID3 and synthesized in the following manner. […]

- solubility in ethanol (in words): not soluble in ethanol
SMILES: CCCCCCCCCCCCCCCCCC(=O)OCOC(=O)N(C(=O)c1ccc(-c2cc(-c3c[nH]nc3-c3ccccn3)ccn2)cc1)C1CCOCC1 [TB4 prodrug]
